Reference: patent publication US5734081A, “Arylthio compounds” (Warner-Lambert Company, priority 1995, dated 1998)
Like-named read-outs stand apart in the source and are kept apart here.

Tests used:
[1] = tested on: HIV-1; assay: CEM cell assay, anti-HIV-1 activity; format: cell-based; conditions: Human immunodeficiency virus 1, CCRF-CEM, HIV-1, 6 or 7 days, read-out: EC50 (Effective Concentration which protects cells from viral cytopathic effects)
Source text: The test systems utilized to establish the antiviral activity of the arylthio compounds of this invention are well recognized in the art and are routinely employed for such purpose. For example, the assay utilized to evaluate the compounds activity against the HIV virus is that employed by the U.S. National Cancer Institute as described by Weislow O. S., et al., J. Natl. Cancer Inst., 1989;81:577-586, incorporated herein by reference.
The procedure is designed to detect agents acting at any stage of the virus reproductive cycle. The assay basically involves the killing of T4 lymphocytes by HIV. Small amounts of HIV are added to cells, and at least two complete cycles of virus reproduction are necessary to obtain the required cell killing. Agents which interact with virions, cells, or virus gene-products to interfere with viral activities will protect cells from cytolysis. The system is automated in several features to accommodate large numbers of candidate agents, and is generally designed to detect anti-HIV activity. However, compounds which degenerate or are rapidly metabolized in the culture conditions may not show activity in this screen.
(§1) Yet another test system employed to determine antiviral activity is called the CEM cell assay.
(§2) T4 lymphocytes (CEM cell line) are exposed to HIV at a virus to cell ratio approximately 0.05, and plated along with noninfected control cells in 96-well microliter plates.
(§3) The candidate agent is dissolved in dimethyl sulfoxide (unless otherwise noted), then diluted 1:200 in cell culture medium. Further dilutions (half-log10) are prepared before adding to an equal volume of medium containing either infected or noninfected cells. Cultures are incubated at 37° in a 5% carbon dioxide atmosphere for 6 or 7 days. The tetrazolium salt, XTT, is added to all wells, and cultures are incubated to allow formazan color development by viable cells (J. National Cancer Institute, 1989;81:577-586). Individual wells are analyzed spectrophotometrically to quantitate formazan production, and in addition are viewed microscopically for detection of viable cells confirmation of protective activity.
(§4) Drug-tested virus-infected cells are compared with drug-treated noninfected cells and with other appropriate controls (untreated infected and untreated noninfected cells, drug-contain wells without cells, etc.) on the same plate. Data are reviewed in comparison with other tests done at the same time and a determination about activity is made.

[2] = CEM cell growth inhibition (XTT, noninfected cells); format: cell-based; conditions: human, CEM Cell Assay, drug alone, read-out: IC50 (Inhibitory Concentration where drug alone inhibits cell growth)
Protocol: as §1, §2, §3, §4

[3] = tested on: Strep. pyogenes c-203; assay: Antibacterial activity, microtitration; format: cell-based; conditions: Gram (+)
Protocol: (§5) The compounds are additionally useful as broad spectrum antibiotics. Minimum inhibitory concentrations were determined utilizing microtitration techniques described by Heifetz, et. al., Antimicrobial Agents and Chemotherapy, 1974, Vol. 6, 124. The data establish that the compounds have activity against a broad spectrum of bacteria, both Gram +and Gram -. Accordingly, the compounds can be utilized to treat and prevent bacterial diseases in animals and humans. They can also be used as industrial disinfectants, for example, to reduce bacterial growth in shower stalls and public areas.

[4] = tested on: E. coli MC4100; assay: Antibacterial activity, microtitration; format: cell-based; conditions: Gram (-)
Protocol: as §5

[5] = tested on: E. coli B90; assay: Antibacterial activity, microtitration; format: cell-based; conditions: Gram (-)
Protocol: as §5

[6] = tested on: Stah. aureus RBI; assay: Antibacterial activity, microtitration; format: cell-based; conditions: Gram (+)
Protocol: as §5

[7] = H9 cell cytotoxicity (XTT assay, uninfected cells); format: cell-based; conditions: human, drug alone, read-out: IC50 (Inhibitory Concentration where drug alone inhibits cell growth)
Protocol: (§6) The H9 T-cell line is batch infected with HIV virus at an M0I of 0.01. After 2 hours absorption, the cells are washed, resuspended in RPMI-1640/10% fetal calf serum, and seeded at […] of a 96-well plate. A duplicate plate of uninfected H9 cells is prepared for the cytotoxicity assay. Drugs are serially diluted 1/3.16 in DMSO, transferred to media at an 8× concentration, and then added to the cultures in triplicate. The final DMSO concentration of 0.002 (0.2%).
(§7) Viral production is measured by RT assay and cytotoxicity is measured by XTT assay at 7 days post-infection. The RT assay is performed as a modification of Borroto-Esoda and Boone, J. Virol., 1991;65:1952-1959 and quantitated using a Molecular Dynamics Phosphoimager with Imagequant software. The XTT assay is performed as a modification of Roehm, et al., J. Immuno. Methods., 1991;142:257-265 and quantitated using a molecular Devices Thermomax plate reader with Softmax software.
(§8) Data is electronically transferred to a Microsoft Excell spreadsheet for analysis. The RT assay values equivalent to 50% and 90% inhibition of virus production are calculated from the untreated controls. The concentrations of inhibitor required to produce these values (IC50 and IC90) are interpolated from data points flanking these RT activities. The XTT assay values equivalent to 50% cytotoxicity are calculated from the untreated controls. The concentrations of inhibitor required to produce this value are interpolated from data points flanking these XTT values.

[8] = tested on: HIV-1; assay: HIV H9 cell assay, anti-HIV-1 activity; format: cell-based; conditions: Human immunodeficiency virus 1, H9, 168 h, read-out: EC50 (Effective Concentration which protects cells from viral cytopathic effects)
Source text: Another test system utilized to evaluate the invention compounds is called HIV H9 assay. The HIV H9 cell assay measures the inhibitor concentration required to suppress HIV-1 virus replication. In this system, viral growth occurs through multiple rounds of the life-cycle. Any suppression of the replication kinetics results in a geometric decrease in virus production. As a result, this assay is a sensitive means of measuring the ability of a compound to inhibit HIV-1 viral replication.
as §6, §7, §8

[9] = tested on: SIV; assay: Antiviral activity, SIV in CEM cells; format: cell-based; conditions: Simian immunodeficiency virus, CCRF-CEM
[10] = tested on: HIV-16R; assay: Anti-HIV activity, HIV-16R in MT-4 cells; format: cell-based, HIV-1
Protocol: (§9) The compounds of the invention were also evaluated against various other HIV strains and cell lines utilizing the assay methodology described above. The compounds were additionally evaluated against clinical isolates of HIV strains.

[11] = tested on: HIV-1RF; assay: Anti-HIV activity, HIV-1RF in CEM cells; format: cell-based; conditions: Human immunodeficiency virus 1, CCRF-CEM
Protocol: as §1, §2, §3, §4, §9

[12] = tested on: HIV-1WEIO; assay: Anti-HIV activity, clinical isolate HIV-1WEIO in PBL; format: cell-based
Protocol: as §9

[13] = tested on: HIV-2ROD; assay: Anti-HIV activity, HIV-2ROD in CEM cells; format: cell-based; conditions: Human immunodeficiency virus 2, CCRF-CEM
Protocol: as §1, §2, §3, §4, §9

[14] = tested on: HIV-1N119; assay: Anti-HIV activity, HIV-1N119 in CEM cells; format: cell-based; conditions: Human immunodeficiency virus 1, CCRF-CEM
Protocol: as §1, §2, §3, §4, §9

[15] = tested on: HIV-1A17; assay: Anti-HIV activity, HIV-1A17 in MT-4 cells; format: cell-based
Protocol: as §9

[16] = tested on: HIV-1IIIb; assay: Anti-HIV activity, HIV-1IIIb in CEM cells; format: cell-based; conditions: Human immunodeficiency virus 1, CCRF-CEM
Protocol: as §1, §2, §3, §4, §9

[17] = target: T1, HIV-1 Nucleocapsid Protein (NCp7) (Human immunodeficiency virus type 1 group M subtype B, UniProt P12493); assay: Zinc extrusion assay (TSQ fluorescence) from the zinc fingers of HIV-1 nucleocapsid protein (NCp7); format: biochemical; conditions: 10 μM compound, 2.8 μM NCp7, pH 7.4, 26° C., 90 minutes
T1 construct: The NCp7 protein containing 2 Zn-fingers and 2 Zn ions is incubated with drug
Source text: The compounds of the present invention cause the extrusion of zinc from the nucleocapsid protein (NCp7) of HIV-1. The NC protein is highly conserved among all retroviruses (South T., Blake P., et al., Biochemistry, 1990;29:7786) and is essential for viral infectivity (Aldovini A. and Young R., J. Virology, 1990;64:1920 and Gorelick R., Nigida S., et al., J. Virology, 1990;64:3207). The zinc is normally held in NC proteins by 1 or 2 zinc fingers. In the case of HIV-1, 2 zinc fingers are present (Summers M., South T., et al., Biochemistry, 1990;29:329) and are involved specifically with the PSI site on viral RNA which controls the packaging of viral RNA. Interference of this packaging causes the formation of non-infectious virions (Dannull J., Surovoy A., et al., EMBO, 1994;13:1525). It has previously been shown that compounds that cause zinc extrusion have potent anti-HIV activity in multiple cell lines and against all retroviruses (Rice W., Schaeffer C., et al., Nature, 1993;361:473).
A fluorescence-based assay has been developed to monitor the ejection of zinc from purified HIV-1 NCp7. The fluorophore, N-(6-methoxy-8-quinolyl)-p-toluenesulfonamide (TSQ), has an increased fluorescent signal upon bonding zinc ion in solution. The NCp7 protein containing 2 Zn-fingers and 2 Zn ions is incubated with drug causing the extrusion of Zn ions. The released Zn is then sequestered by the TSQ and the increased fluorescence monitored relative to control. […] Fluorescence (excitation 355 nm emission 400 nm) was monitored versus time. Controls were the NCp7 under assay conditions without drug, and apo NCp7 (no Zn) with drug. The % Zn extrusion was calculated based on the actual fluorescence measured divided by the fluorescence of all theoretical Zn extruded (5.6 μM)×100.
Table 1 below presents data for several invention compounds evaluated in the zinc extrusion assay described above.

[18] = tested on: HIV-1IIIb; assay: Anti-HIV activity, HIV-1IIIb in MT-2 cells; format: cell-based; conditions: Human immunodeficiency virus 1, MT2; MT-2, HIV-1IIIb
Protocol: as §9

[19] = tested on: HIV-1A17; assay: Anti-HIV activity, HIV-1A17 in MT-2 cells; format: cell-based; conditions: Human immunodeficiency virus 1, MT2
Protocol: as §9

[20] = Human immunodeficiency virus 1, MT4
[21] = Human immunodeficiency virus 1, MT4, read-out: EC50 (AZT)

Row | Compound | EC50 [1] | CC50 [2] | Minimum inhibitory concentration [3] | Minimum inhibitory concentration [4] | Minimum inhibitory concentration [5] | Minimum inhibitory concentration [6] | CC50 at 168 h [7] | EC50 [8] | % Zinc Extrusion Relative to Control [17] | other results
1 | NS(=O)(=O)c1ccc(NC(=O)c2ccccc2S)cc1 [Example 6, 2-Thio-N-(4-sulfamoylphenyl)benzamide] | 5.2 µM | > 100 µM | 64 | 64 | 32 | 128 | 28 µM | 2.5 µM | – | –
2 | CC(=O)NS(=O)(=O)c1ccc(NC(=O)c2ccccc2SSc2ccccc2C(=O)Nc2ccc(S(=O)(=O)NC(C)=O)cc2)cc1 [Example 4, 2,2'-Dithiobis-N-[4-[(acetylamino)sulfonyl]phenyl]benzamide] | – | – | 64 | 128 | 32 | 256 | 27 µM | 4.8 µM | 87% | EC50 ([9]; read-out: EC50): 3.4 µM; EC50 [10, 20]: 1.9 µM; EC50 ([11]; CEM, HIV-1RF, read-out: EC50): 1.5 µM; EC50 ([12]; Human immunodeficiency virus 1): 5.2 µM; EC50 ([13]; CEM, HIV-2ROD, read-out: EC50): 3 µM; EC50 [14]: 4.6 µM; EC50 [15, 20]: 8.9 µM; EC50 ([16]; CEM, HIV-1IIIb, read-out: EC50): 5.2 µM
3 | Cc1cn([C@H]2C[C@H](N=[N+]=[N-])[C@@H](CO)O2)c(=O)[nH]c1=O [AZT, azidothymidine, reference compound] | – | – | – | – | – | – | – | – | – | EC50 ([9]; read-out: EC50 (AZT)): 0.245 µM; EC50 [10, 21]: > 1 µM; EC50 ([11]; read-out: EC50 (AZT)): 0.0006 µM; EC50 ([12]; Human immunodeficiency virus 1, read-out: EC50 (AZT)): 0.003 µM; EC50 ([13]; read-out: EC50 (AZT)): 0.00141 µM; EC50 ([14]; read-out: EC50 (AZT)): 0.0444 µM; EC50 [15, 21]: 0.114 µM; EC50 ([16]; read-out: EC50 (AZT)): 0.0045 µM
4 | CCC(C)C(NC(=O)c1ccccc1SSc1ccccc1C(=O)NC(C(=O)O)C(C)CC)C(=O)O (racemic) [Example 5, 2-[[2-[(1-Carboxy-2-methylbutylcarbamoyl)phenyldisulfanyl]-benzoyl]-amino]-3-methylpentanoic acid] | 10.5 µM | 105 µM | – | – | – | – | 62 µM | 1.4 µM | 87% | –
5 | NS(=O)(=O)c1ccc(NC(=O)c2ccc(SSc3ccc(C(=O)Nc4ccc(S(N)(=O)=O)cc4)cc3)cc2)cc1 [Reference Compound, 4,4dithiobis-4sulfamoyl benzanilide, reference compound] | > 100 µM | > 100 µM | – | – | – | – | > 100 µM | > 100 µM | 0% | –
6 | O=c1[nH]cnc2c1ncn2[C@H]1CC[C@@H](CO)O1 [ddI, dideoxyinosine, reference compound] | – | – | – | – | – | – | – | – | – | EC50 [18]: 6 µM; EC50 [19]: 4.6 µM
